The source of these data is BindingDB's records for doi:10.7270/Q2TX3CTT (Broad Institute, 2010).

pEC50: −log10 of the molar value. Structures can show the parent of a compound that is named as a salt.

The experiment deals with Glycogen synthase kinase-3 beta (Homo sapiens, UniProt P49841). Briefly: concentration-response blocking of human GSK3B – biochemical, luminescence, cell-free homogeneous, retest, dose response (AID 434954).
Sequence of Glycogen synthase kinase-3 beta (P49841 whole entry): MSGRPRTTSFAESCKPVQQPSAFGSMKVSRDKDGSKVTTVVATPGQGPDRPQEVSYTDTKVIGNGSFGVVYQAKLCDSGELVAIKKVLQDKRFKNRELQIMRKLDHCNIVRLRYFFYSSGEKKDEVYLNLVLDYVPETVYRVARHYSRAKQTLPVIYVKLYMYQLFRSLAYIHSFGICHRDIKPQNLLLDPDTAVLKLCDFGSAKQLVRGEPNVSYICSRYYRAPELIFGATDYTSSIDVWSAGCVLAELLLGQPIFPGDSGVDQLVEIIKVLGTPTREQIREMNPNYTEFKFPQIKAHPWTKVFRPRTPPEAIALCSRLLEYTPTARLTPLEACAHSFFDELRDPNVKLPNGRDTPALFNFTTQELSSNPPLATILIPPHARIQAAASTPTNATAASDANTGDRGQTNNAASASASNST
Broadly, the pEC50 is the EC50 on a negative log10 scale, so that one unit is a factor of ten. A high value points to a small EC50. Compound `Cc1ccc(Nc2nc(N)c([N+](=O)[O-])c(NCc3ccco3)n2)cc1` showed a pEC50 of 5.04. Next, `CCC(=O)n1nc(-c2ccc(OC)cc2)nc1N` [MLS000043495]: below 3.52; `Cc1ccccc1CSc1ccc2nnc(-c3ccccn3)n2n1` [SMR000323599]: below 3.52; `Cc1cc(NC(=O)CCC(=O)N(c2cccnc2)C(C(=O)NC2CCCC2)c2ccccc2F)no1` (configuration not stated) [N'-[2-(cyclopentylamino)-1-(2-fluorophenyl)-2-oxoethyl]-N-(5-methyl-1,2-oxazol-3-yl)-N'-pyridin-3-ylbutanediamide]: below 3.52.

`COc1ccc(CNC(=O)CN(Cc2ccccc2)C(=O)CCC(=O)Nc2nccs2)cc1` [N'-[2-[(4-methoxyphenyl)methylamino]-2-oxoethyl]-N'-(phenylmethyl)-N-(2-thiazolyl)butanediamide]: the pEC50 was 4.95. Next, `CC(=O)Nc1c(N)c2ccccc2oc1=O` [N-(4-amino-2-oxo-1-benzopyran-3-yl)acetamide]: below 3.52. The same measure for `Cc1ccc2c(c1)C1CN(C)CCC1N2C(=O)Nc1cccc(Cl)c1` (configuration not stated) [MLS000565326]: below 3.52; for `O=C(Nc1ccc(N2CCN(Cc3ccccc3)CC2)cc1)c1ccccc1[N+](=O)[O-]` [N-[4-(4-benzyl-1-piperazinyl)phenyl]-2-nitrobenzamide]: below 3.52. The same measure for `O=C(NCC(c1ccco1)N1CCc2ccccc21)c1c(F)cccc1F` (configuration not stated) [N-[2-(2,3-dihydroindol-1-yl)-2-(furan-2-yl)ethyl]-2,6-bis(fluoranyl)benzamide]: below 3.52; for `N#Cc1c2n(c3c(-c4ccccc4)ncnc13)CCC2` [MLS000104266]: 4.40; for `CCN1CCN(c2cc(C)c3cc(NC(=O)CCC(=O)Nc4ccc(OC)cc4OC)ccc3n2)CC1` [N'-(2,4-dimethoxyphenyl)-N-[2-(4-ethyl-1-piperazinyl)-4-methyl-6-quinolinyl]butanediamide]: below 3.52. `CC(C)CNc1nc(N)c([N+](=O)[O-])c(NC2CCCCC2)n1` [MLS001213331]: the pEC50 is 4.87. Turning to `COc1cccc2cc(C(=O)CS(=O)(=O)c3ccc(C)cc3)c(=O)oc12` [8-methoxy-3-[2-(4-methylphenyl)sulfonylethanoyl]chromen-2-one], the pEC50 is below 3.52. Next, `Cc1ccc(C(=O)NN=C2CCCc3ccccc32)c(C)c1` [MLS001005817]: below 3.52. Next, `O=NCc1cn(CCC(=O)O)nc1-c1cccc([N+](=O)[O-])c1` [SMR000371064]: 5.13; `N#Cc1c(O)nc(SCC(=O)c2cccs2)nc1-c1cccs1` [6-oxo-2-{[2-oxo-2-(2-thienyl)ethyl]sulfanyl}-4-(2-thienyl)-1,6-dihydro-5-pyrimidinecarbonitrile]: below 3.52.

Regarding `N#Cc1c2n(c3c(N)ncnc13)CCCCC2` [4-Amino-6,7,8,9-tetrahydro-5H-1,3,4b-triaza-benzo[a]azulene-10-carbonitrile], the pEC50 was below 3.52.

`CCc1n[nH]c(=S)n1N=CC(C)=Cc1ccccc1` [MLS001164489] had a pEC50 below 3.52.

The compound `COc1cccc(C(=O)NCC(c2ccco2)N2CCc3ccccc3C2)c1` (configuration not stated) [N-[2-(3,4-dihydro-1H-isoquinolin-2-yl)-2-(furan-2-yl)ethyl]-3-methoxy-benzamide] gave a pEC50 below 3.52. Next, `Nc1nc(NCC2CCCO2)nc(Nc2cccc(F)c2)c1[N+](=O)[O-]` (configuration not stated) [N4-(3-fluorophenyl)-5-nitro-N2-(2-oxolanylmethyl)pyrimidine-2,4,6-triamine]: 5.15. Next, `CNC(=O)c1ccccc1NC(=O)c1cccc(S(=O)(=O)N2CCC(C)CC2)c1` [N-methyl-2-({3-[(4-methylpiperidin-1-yl)sulfonyl]benzoyl}amino)benzamide]: below 3.52; `COc1ccc(-c2cc(C(F)(F)F)nc(SCCC(=O)N3CCOCC3)n2)cc1` [3-[4-(4-methoxyphenyl)-6-(trifluoromethyl)pyrimidin-2-yl]sulfanyl-1-morpholin-4-ylpropan-1-one]: below 3.52. Next, `Cc1ccc(OCC(=O)N/N=C/c2ccc(O)cc2)c([N+](=O)[O-])c1` [2-(4-methyl-2-nitro-phenoxy)-N'-[(4-oxidanylidenecyclohexa-2,5-dien-1-ylidene)methyl]ethanehydrazide]: 5.14; `N#Cc1c(-c2cccs2)cc(-c2cccnc2)nc1N` [SMR000043147]: 4.98. Compound `CCOC(=O)C1CCN(CC(O)COC(CC)c2ccccc2)CC1` (configuration not stated) [ethyl 1-[2-oxidanyl-3-(1-phenylpropoxy)propyl]piperidine-4-carboxylate;hydrochloride] had a pEC50 below 3.52. The same measure for `COc1ccc(-n2c(=O)c3c4c(sc3n3c(S)nnc23)CCCC4)cc1` [1-mercapto-4-(4-methoxyphenyl)-6,7,8,9-tetrahydro[1]benzothieno[3,2-e][1,2,4]triazolo[4,3-a]pyrimidin-5(4H)-one]: below 3.52; for `COc1ccc(CCN(C)C(=O)c2ccc(S(=O)(=O)Nc3ccccc3C)cc2)cc1OC`: below 3.52; for `NS(=O)(=O)c1ccc(CCNC(=O)C(=O)c2cn(CC(=O)N3CCCC3)c3ccccc23)cc1` [MLS001235966]: below 3.52.

As to `CCCn1cc(SCC(=O)NCc2ccco2)c2ccccc21` [MLS000095681], the pEC50 is below 3.52. The compound `CCOC(=O)c1nnn(-c2nonc2N)c1CSc1ccc(C)cc1` [SMR000020597] had a pEC50 of 3.80.

Compound `CCSc1nc2sc3c(c2c(=O)n1-c1ccccc1)CCN(C)C3` [2-Ethylsulfanyl-7-methyl-3-phenyl-5,6,7,8-tetrahydro-3H-9-thia-1,3,7-triaza-fluoren-4-one] had a pEC50 below 3.52. The same measure for `CC(NCC1COc2ccccc2O1)C1COc2ccccc2O1` (configuration not stated): below 3.52; for `O=C(O)c1ccccc1C(=O)Nc1nccs1` [2-(1,3-thiazol-2-ylcarbamoyl)benzoic acid]: below 3.52.

In turn, `CC1CCN(c2nc3c(N)ncnc3n2[C@@H]2O[C@H](CO)[C@@H](O)[C@H]2O)CC1` had a pEC50 below 3.52. Next, `Nc1nonc1-n1nnc(C(=O)NN=Cc2ccccn2)c1CNc1ccccc1` [1-(4-amino-1,2,5-oxadiazol-3-yl)-5-(anilinomethyl)-N-(2-pyridinylmethylideneamino)-4-triazolecarboxamide]: below 3.52; `CCOc1ccc(C(=O)NCC(=O)OCc2c(C)noc2C)cc1` [(3,5-dimethyl-1,2-oxazol-4-yl)methyl 2-[(4-ethoxybenzoyl)amino]acetate]: below 3.52.

In turn, `CCN1CCN(c2ccc(S(=O)(=O)N3CCOCC3)cc2NC(=O)c2ccc(Cl)cc2Cl)CC1` [2,4-bis(chloranyl)-N-[2-(4-ethylpiperazin-1-yl)-5-morpholin-4-ylsulfonyl-phenyl]benzamide] gave a pEC50 below 3.52.

On to `CCN(CC)CCNc1nc(SC)nc2sc3c(c12)CCN(C)C3`, for which the pEC50 was below 3.52. In the case of `COc1ccc(Nc2nc(N)c([N+](=O)[O-])c(NCc3ccccc3)n2)cc1` [MLS000332775], the pEC50 is 4.99. `CN(Cc1c(C(=O)NN=Cc2cccc(O)c2)nnn1-c1nonc1N)C1CCCCC1` [MLS001142859]: the pEC50 is 6.15. As to `CCCn1c(SCC(=O)Nc2ccc(Cl)cn2)nnc1C1CC1`, the pEC50 is 4.62.

`CCOc1ccccc1CNC(=O)CCn1ccc2cc(S(=O)(=O)N3CCCCC3)ccc21` [SMR000629632]: the pEC50 was below 3.52.
